Measurements from US8173652B2, “Isoxazole-isoxazoles and isoxazole-isothiazoles” (Hoffmann-La Roche Inc., priority 2009, dated 2012).

Biological target: T1, human GABA A receptor α5β3γ2 (Homo sapiens, UniProt P18507+P31644)
T1 construct: expressed in transfected cells; host or cells: HEK293 (transiently transfected), membrane preparation
Experiment: [3H]flumazenil competition binding assay, human GABA A α5 receptor
Conditions: human α5β3γ2 receptors transiently transfected in HEK293 cells; displacement of [3H]flumazenil 0.5 nM; 1 hour at 4° C.; means of two determinations; read-out: hKi GABA A α5
Protocol: Membrane Preparation and Binding Assay
The affinity of compounds at GABA A receptor subtypes was measured by competition for [3H]flumazenil (85 Ci/mmol; Roche) binding to HEK293 cells expressing rat (stably transfected) or human (transiently transfected) receptors of composition α1β3γ2, α2β3γ2, α3β3γ2 and α5β3γ2.
Cell pellets were suspended in Krebs-tris buffer (4.8 mM KCl, 1.2 mM CaCl2, 1.2 mM MgCl2, 120 mM NaCl, 15 mM Tris; pH 7.5; binding assay buffer), homogenized by polytron for ca. 20 sec on ice and centrifuged for 60 min at 4° C. (50000 g; Sorvall, rotor: SM24=20000 rpm). The cell pellets were re-suspended in Krebs-tris buffer and homogenized by polytron for ca. 15 sec on ice. Protein was measured (Bradford method, Bio-Rad) and aliquots of 1 mL were prepared and stored at −80° C.
Radioligand binding assays were carried out in a volume of […] (96-well plates) which contained […] of cell membranes, [^3H]flumazenil at a concentration of 1 nM for α1, α2 and α3 subunits and 0.5 nM for α5 subunits and the test compound in the range of […]. Nonspecific binding was defined by 10^−5 M diazepam and typically represented less than 5% of the total binding. Assays were incubated to equilibrium for 1 hour at 4° C. and harvested onto GF/C uni-filters (Packard) by filtration using a Packard harvester and washing with ice-cold wash buffer (50 mM Tris; pH 7.5). After drying, filter-retained radioactivity was detected by liquid scintillation counting. Ki values were calculated using Excel-Fit (Microsoft) and are the means of two determinations.

SMILES	Ki [nM]
Cc1onc(-c2ccccc2)c1COc1cc(C(=O)NC(C)CO)on1 (single isomer, unassigned) [Example 8, (R or S)-3-(5-Methyl-3-phenyl-isoxazol-4-ylmethoxy)-isoxazole-5-carboxylic acid (2-hydroxy-1-methyl-ethyl)-amide]	13.5
Cc1onc(-c2ccccc2)c1COc1cc(C(=O)NC(C)CO)on1 (single isomer, unassigned) [Example 9, (S or R)-3-(5-Methyl-3-phenyl-isoxazol-4-ylmethoxy)-isoxazole-5-carboxylic acid (2-hydroxy-1-methyl-ethyl)-amide]	23.1
CCCCc1noc(C)c1/C=C/c1cc(C(=O)NCCO)on1 [Example 1, 3-[(E)-2-(3-Butyl-5-methyl-isoxazol-4-yl)-vinyl]-isoxazole-5-carboxylic acid (2-hydroxy-ethyl)-amide]	28.6
Cc1onc(-c2ccccc2)c1COc1cc(C(=O)NCCO)on1 [Example 5, 3-(5-Methyl-3-phenyl-isoxazol-4-ylmethoxy)-isoxazole-5-carboxylic acid (2-hydroxy-ethyl)-amide]	8
Cc1onc(-c2ccccc2)c1COc1cc(C(=O)NC(C)CO)on1 (stereo not shown) [Example 6, 3-(5-Methyl-3-phenyl-isoxazol-4-ylmethoxy)-isoxazole-5-carboxylic acid (2-hydroxy-1-methyl-ethyl)-amide]	8.8
CC(=O)OCCNC(=O)c1cc(OCc2c(-c3ccccc3)noc2C)no1 [Example 7, Acetic acid 2-{[3-(5-methyl-3-phenyl-isoxazol-4-ylmethoxy)-isoxazole-5-carbonyl]-amino}-ethyl ester]	16.8
Cc1onc(-c2ccccc2)c1COc1cc(C(=O)NN(C)C)on1 [Example 10, 3-(5-Methyl-3-phenyl-isoxazol-4-ylmethoxy)-isoxazole-5-carboxylic acid N′,N′-dimethyl-hydrazide]	22.2
Cc1onc(-c2ccccc2)c1COc1cc(C(=O)NN2CCCCC2)on1 [Example 11, 3-(5-Methyl-3-phenyl-isoxazol-4-ylmethoxy)-isoxazole-5-carboxylic acid piperidin-1-yl-amide]	13.8
Cc1onc(-c2ccccc2)c1COc1cc(C(=O)NN2CCCC2)on1 [Example 12, 3-(5-Methyl-3-phenyl-isoxazol-4-ylmethoxy)-isoxazole-5-carboxylic acid pyrrolidin-1-yl-amide]	18.5
Cc1onc(-c2ccccn2)c1COc1cc(C(=O)NN(C)C)on1 [Example 18, 3-(5-Methyl-3-pyridin-2-yl-isoxazol-4-ylmethoxy)-isoxazole-5-carboxylic acid N′,N′-dimethyl-hydrazide]	8.9
Cc1onc(-c2ccccn2)c1COc1cc(C(=O)NN2CCCC2)on1 [Example 21, 3-(5-Methyl-3-pyridin-2-yl-isoxazol-4-ylmethoxy)-isoxazole-5-carboxylic acid pyrrolidin-1-ylamide]	7.8
CCCCc1noc(C)c1COc1cc(C(=O)NCCO)on1 [Example 24, 3-(3-Butyl-5-methyl-isoxazol-4-ylmethoxy)-isoxazole-5-carboxylic acid (2-hydroxy-ethyl)-amide]	22.2
CCCCc1noc(C)c1COc1cc(C(=O)NC(C)CO)on1 (stereo not shown) [Example 25, 3-(3-Butyl-5-methyl-isoxazol-4-ylmethoxy)-isoxazole-5-carboxylic acid (2-hydroxy-1-methyl-ethyl)-amide]	27.7
CCCCc1noc(C)c1COc1cc(C(=O)N[C@@H](C)CO)on1 [Example 26, 3-(3-Butyl-5-methyl-isoxazol-4-ylmethoxy)-isoxazole-5-carboxylic acid ((S)-2-hydroxy-1-methyl-ethyl)-amide]	22.7
CCCCc1noc(C)c1COc1cc(C(=O)N[C@H](C)CO)on1 [Example 27, 3-(3-Butyl-5-methyl-isoxazol-4-ylmethoxy)-isoxazole-5-carboxylic acid ((R)-2-hydroxy-1-methyl-ethyl)-amide]	38
CCCCc1noc(C)c1COc1cc(C(=O)NC(C)C)on1 [Example 28, 3-(3-Butyl-5-methyl-isoxazol-4-ylmethoxy)-isoxazole-5-carboxylic acid isopropylamide]	24.6
CCCCc1noc(C)c1COc1cc(C(=O)NC2CCOC2)on1 (stereo not shown) [Example 29, 3-(3-Butyl-5-methyl-isoxazol-4-ylmethoxy)-isoxazole-5-carboxylic acid (tetrahydro-furan-3-yl)-amide]	8.5
CCCCc1noc(C)c1COc1cc(C(=O)NN(C)C)on1 [Example 32, 3-(3-Butyl-5-methyl-isoxazol-4-ylmethoxy)-isoxazole-5-carboxylic acid N′,N′-dimethyl-hydrazide]	56.8
CCCCc1noc(C)c1COc1cc(C(=O)NN2CCOCC2)on1 [Example 33, 3-(3-Butyl-5-methyl-isoxazol-4-ylmethoxy)-isoxazole-5-carboxylic acid morpholin-4-ylamide]	10.4
Cc1onc(-c2ccccc2)c1COc1cc(C(=O)NC(C)C)sn1 [Example 34, 3-(5-Methyl-3-phenyl-isoxazol-4-ylmethoxy)-isothiazole-5-carboxylic acid isopropylamide]	28
Cc1onc(-c2ccccc2)c1COc1cc(C(=O)NCCO)sn1 [Example 35, 3-(5-Methyl-3-phenyl-isoxazol-4-ylmethoxy)-isothiazole-5-carboxylic acid (2-hydroxy-ethyl)-amide]	35

Now those with a lower Ki, led by results:

Ki [nM]	SMILES
7.5	Cc1onc(-c2ccccc2)c1COc1cc(C(=O)NC(C)C)on1 [Example 3, 3-(5-Methyl-3-phenyl-isoxazol-4-ylmethoxy)-isoxazole-5-carboxylic acid isopropylamide]
6.5	CCCCc1noc(C)c1COc1cc(C(=O)NC2CCOC2)on1 (single isomer, unassigned) [Example 30, (R or S)-3-(3-Butyl-5-methyl-isoxazol-4-ylmethoxy)-isoxazole-5-carboxylic acid (tetrahydro-furan-3-yl)-amide]
6	Cc1onc(-c2ccccn2)c1COc1cc(C(=O)NN2CCCCC2)on1 [Example 20, 3-(5-Methyl-3-pyridin-2-yl-isoxazol-4-ylmethoxy)-isoxazole-5-carboxylic acid piperidin-1-ylamide]
4.4	Cc1onc(-c2ccccc2)c1COc1cc(C(=O)NC2CCOC2)on1 (stereo not shown) [Example 4, 3-(5-Methyl-3-phenyl-isoxazol-4-ylmethoxy)-isoxazole-5-carboxylic acid (tetrahydro-furan-3-yl)-amide]
3	Cc1onc(-c2ccccn2)c1COc1cc(C(=O)NCCO)on1 [Example 15, 3-(5-Methyl-3-pyridin-2-yl-isoxazol-4-ylmethoxy)-isoxazole-5-carboxylic acid (2-hydroxy-ethyl)-amide]
2.8	CCCCc1noc(C)c1COc1cc(C(=O)NC2CCOC2)on1 (single isomer, unassigned) [Example 31, (S or R)-3-(3-Butyl-5-methyl-isoxazol-4-ylmethoxy)-isoxazole-5-carboxylic acid (tetrahydro-furan-3-yl)-amide]
2.8	Cc1onc(-c2ccccc2)c1COc1cc(C(=O)NN2CCOCC2)on1 [Example 13, 3-(5-Methyl-3-phenyl-isoxazol-4-ylmethoxy)-isoxazole-5-carboxylic acid morpholin-4-ylamide]
2.5	Cc1onc(-c2ccccn2)c1COc1cc(C(=O)NC(C)C)on1 [Example 14, 3-(5-Methyl-3-pyridin-2-yl-isoxazol-4-ylmethoxy)-isoxazole-5-carboxylic acid isopropyl-amide]
2.3	Cc1onc(-c2ccccn2)c1COc1cc(C(=O)NCC(F)(F)F)on1 [Example 17, 3-(5-Methyl-3-pyridin-2-yl-isoxazol-4-ylmethoxy)-isoxazole-5-carboxylic acid (2,2,2-trifluoro-ethyl)-amide]
2.2	Cc1onc(-c2ccc(F)cn2)c1COc1cc(C(=O)NCCO)on1 [Example 23, 3-[3-(5-Fluoro-pyridin-2-yl)-5-methyl-isoxazol-4-ylmethoxy]-isoxazole-5-carboxylic acid (2-hydroxy-ethyl)-amide]
2	Cc1onc(-c2ccccn2)c1COc1cc(C(=O)NN2CCOCC2)on1 [Example 19, 3-(5-Methyl-3-pyridin-2-yl-isoxazol-4-ylmethoxy)-isoxazole-5-carboxylic acid morpholin-4-ylamide]
1.7	Cc1onc(-c2ccc(F)cn2)c1COc1cc(C(=O)NC(C)C)on1 [Example 22, 3-[3-(5-Fluoro-pyridin-2-yl)-5-methyl-isoxazol-4-ylmethoxy]-isoxazole-5-carboxylic acid isopropylamide]
1.4	Cc1onc(-c2ccccn2)c1COc1cc(C(=O)NC2CCOC2)on1 (stereo not shown) [Example 16, 3-(5-Methyl-3-pyridin-2-yl-isoxazol-4-ylmethoxy)-isoxazole-5-carboxylic acid (tetrahydro-furan-3-yl)-amide]
